# PMC9385671 (Nature Communications, 2022)
# “And” between values parts separate entries of the source, which are not always exact repeats. Equal entries are not always repeated. Where two headings read alike, the source gives them in different places.
# Experiments:
# MjTyrRS variants [1] = molecular target: T1, MjTyrRS variants (Methanocaldococcus jannaschii, UniProt Q57834, D158A/F108N/H70G/L162C/L65E/Y32V); assay: Intact cell fluorescence assay of HYs incorporation into SUMO-sfGFP; format: cell-based; settings: Synthetase C64RS
# T1 construct: expressed in transfected cells
# Experimental: (§1) The intact cell fluorescence assay was performed to approximately compare the Br2Y and Cl2Y incorporation efficiency of screened MjTyrRSs as well as to estimate their promiscuity against other Tyr analogues. Since the gene expression of SUMO-sfGFP was driven by T5 promoter on the one round positive selection plasmid, SUMO-sfGFP can be directly expressed in DH10b strain. […] Next day, an overnight culture was inoculated in a well at a ratio of 1:100 containing 300 μL TB medium supplemented with 50 μg/mL Kan,100 μg/mL Amp, 0.5 mM IPTG as well as 1 mM HYs while the corresponding control lacked the HYs. Cells were grown in 96 well plates (Ibidi) with orbital shaking (2 mm amplitude) for 24 h at 37 °C covered with a gas-permeable foil (Sigma Aldrich, Taufkirchen, Germany). […] After 24 h incubation, the optimal density and fluorescence was measured via top reading after the gas-permeable foil was removed. Each measurement was done in triplicate.
# MjTyrRS variants [2] = assay: as above; format: cell-based, Methanocaldococcus jannaschii
# Experimental: as §1
# MjTyrRS variants [3] = molecular target: T2, MjTyrRS variants (Methanocaldococcus jannaschii, UniProt Q57834, D158A/F108Q/H70G/L162N/L65E/Q109C/Y32G); assay: as above; format: cell-based; settings: for Fluorescence Instensity: Synthetase B48RS
# T2 construct: expressed in transfected cells
# Experimental: as §1
# FtsZ-YFP-mts = FtsZ-YFP-mts (Escherichia coli, UniProt P0A9A6); format: biochemical; set-up: made in house; host or cells: E. coli BL21(DE3) for the wild type; settings: 5 μM protein, 1 mM GTP; for GTPase activity, Average: average of two repeats; for GTPase activity, single repeats: repeat 1 and repeat 2
# Experimental: Reactions were performed every 20 s for a total time of 120 s. After 30 min of incubation with BIOMOL® GREEN at room temperature, the absorbance of the samples at 620 nm was monitored by TECAN plate reader. The phosphate release concentrations were calculated based on a phosphate standard curve.
# [4] = Side-chain acidity: pKa by 1H NMR titration of free amino acids; format: physicochemical; settings: for pKa: aqueous KH2PO4 solution titrated with sodium hydroxide; for pKa of the phenolic side-chain: experimental error ±0.15
# Experimental: 10–20 mg of an amino acid, 50 mg of KH2PO4 was dissolved in 15 ml of water and titrated by sodium hydroxide solution to distinct pH values. 500 μl were taken to NMR tubes, 50 μl deuterium oxidewas added and ^1H NMR spectra were measured using W5 pulse tray water suppression at 500 MHz frequency. The chemical shifts were plotted against pH and analyzed using Henderson-Hasselbalch equation to deliver the pKa values. Experimental error ±0.15.
# [5] = molecular target: the molecule itself; assay: dynamic light scattering; 12.5 µM FtsZ in SLB buffer (50 mM Tris-HCl pH 7.5, 150 mM KCl), 25 °C, 90° light scattering; polymerisation started by adding 4 mM GTP, followed for at least 70 min
# [6] = experimental error ±0.15, read-out: Ammonium pKa
# [7] = experimental error ±0.15, read-out: pKa of the phenolic side-chain
# T1 sequence (Q57834 whole entry Y32V/L65E/H70G/F108N/D158A/L162C): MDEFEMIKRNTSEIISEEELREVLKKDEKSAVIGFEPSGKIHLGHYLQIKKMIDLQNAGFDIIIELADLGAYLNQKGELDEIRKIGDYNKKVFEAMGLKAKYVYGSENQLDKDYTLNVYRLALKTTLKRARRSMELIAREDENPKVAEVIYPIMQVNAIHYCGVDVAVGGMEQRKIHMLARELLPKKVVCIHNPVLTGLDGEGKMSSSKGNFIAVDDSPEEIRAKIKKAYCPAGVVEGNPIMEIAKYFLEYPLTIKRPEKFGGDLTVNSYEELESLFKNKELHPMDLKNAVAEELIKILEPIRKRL
# T2 sequence (Q57834 whole entry Y32G/L65E/H70G/F108Q/Q109C/D158A/L162N): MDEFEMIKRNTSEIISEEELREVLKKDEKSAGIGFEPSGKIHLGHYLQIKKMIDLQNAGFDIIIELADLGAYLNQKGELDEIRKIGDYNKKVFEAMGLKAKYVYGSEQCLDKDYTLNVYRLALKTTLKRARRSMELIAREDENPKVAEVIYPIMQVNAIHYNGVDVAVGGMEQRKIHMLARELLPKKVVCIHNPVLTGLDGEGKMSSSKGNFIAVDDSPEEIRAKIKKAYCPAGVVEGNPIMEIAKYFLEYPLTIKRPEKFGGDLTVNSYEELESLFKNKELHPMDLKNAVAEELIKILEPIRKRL
Molecule,Fluorescence Instensity (MjTyrRS variants [1]),Fluorescence Instensity (MjTyrRS variants [2]; Synthetase B4RS),Fluorescence Instensity (MjTyrRS variants [2]; Synthetase B12RS),Fluorescence Instensity (MjTyrRS variants [2]; Synthetase B37RS),Fluorescence Instensity (MjTyrRS variants [2]; Synthetase B39RS),Fluorescence Instensity (MjTyrRS variants [2]; Synthetase C45RS),Fluorescence Instensity (MjTyrRS variants [3]),"GTPase activity, Average (FtsZ-YFP-mts) [pi/min]","GTPase activity, single repeats (FtsZ-YFP-mts)","pKa [4, 6]","pKa [4, 7]",pKa of the phenolic side-chain [4],Fluorescence Instensity (MjTyrRS variants [2]; Synthetase C5RS),Fluorescence Instensity (MjTyrRS variants [2]; Synthetase C61RS),"Incorporation efficiency (sfGFP fluorescence) versus control without HYs additions (MjTyrRS variants [3]; mutant B48RS, 1 mM HY, E. coli DH10b)",binding result [5]
"N[C@@H](Cc1cc(I)c(O)c(I)c1)C(=O)O [I2Y, 3,5-diiodo-L-tyrosine]",0.1172 a.u. and 0.1504 a.u. and 0.08392 a.u.,0.01117 a.u. and 0.01123 a.u. and 0.01112 a.u.,0.07137 a.u. and 0.08741 a.u. and 0.05734 a.u.,0.1118 a.u. and 0.1372 a.u. and 0.08534 a.u.,0.1743 a.u. and 0.1958 a.u. and 0.1504 a.u.,0.07608 a.u. and 0.1006 a.u. and 0.05086 a.u.,0.00608 a.u. and 0.00634 a.u. and 0.00611 a.u.,1.222,1.132 pi/min and 1.3119 pi/min,9.38,6.5,6.45,,,,
"N[C@@H](Cc1cc(Br)c(O)c(Br)c1)C(=O)O [Br2Y, 3,5-dibromo-L-tyrosine]",0.543 a.u. and 0.6311 a.u. and 0.4752 a.u.,0.3153 a.u. and 0.3784 a.u. and 0.2551 a.u.,0.5915 a.u. and 0.6712 a.u. and 0.4959 a.u.,0.6 a.u. and 0.6999 a.u. and 0.4943 a.u.,0.615 a.u. and 0.7381 a.u. and 0.4945 a.u.,0.5945 a.u. and 0.6865 a.u. and 0.5035 a.u.,0.6442 a.u. and 0.7285 a.u. and 0.5778 a.u.,3.469,3.2195 pi/min and 3.7182 pi/min,9.47,6.5,6.42 and 6.4,0.6366 a.u. and 0.6936 a.u. and 0.5742 a.u.,0.4306 a.u. and 0.4884 a.u. and 0.3801 a.u.,more than 100 fold,
"N[C@@H](Cc1ccc(O)c(I)c1)C(=O)O [IY, 3-iodo-L-tyrosine]",0.4349 a.u. and 0.5128 a.u. and 0.3571 a.u.,,0.5049 a.u. and 0.5603 a.u. and 0.4548 a.u.,0.268 a.u. and 0.305 a.u. and 0.2304 a.u.,0.1745 a.u. and 0.1928 a.u. and 0.1452 a.u.,0.7321 a.u. and 0.8284 a.u. and 0.6034 a.u.,0.5153 a.u. and 0.5773 a.u. and 0.4545 a.u.,,1.6686 pi/min and 1.8578 pi/min,9.37,8.3,,0.6274 a.u. and 0.698 a.u. and 0.5495 a.u.,0.5143 a.u. and 0.5653 a.u. and 0.452 a.u.,,
"wild type FtsZ-YFP-mts (domain or fragment, UniProt P0A9A6 1-366, looked up, FtsZ, prokaryotic cell-division protein (ftsZ gene product), truncated to residues 1-366; also called FtsZ chimera; FtsZ(1-366) fused with YFP and mts; source: E. coli BL21(DE3), pET-11b, purified (ammonium sulphate precipitation, anion exchange Q-Sepharose)) MFEPMELTNDAVIKVIGVGGGGGNAVEHMVRERIEGVEFFAVNTDAQALRKTAVGQTIQIGSGITKGLGAGANPEVGRNAADEDRDALRAALEGADMVFIAAGMGGGTGTGAAPVVAEVAKDLGILTVAVVTKPFNFEGKKRMAFAEQGITELSKHVDSLITIPNDKLLKVLGRGISLLDAFGAANDVLKGAVQGIAELITRPGLMNVDFADVRTVMSEMGYAMMGSGVASGEDRAEEAAEMAISSPLLEDIDLSGARGVLVNITAGFDLRLDEFETVGNTIRAFASDNATVVIGTSLDPDMNDELRVTVVATGIGMDKRPEITLVTNKQVQQPVMDRYQQHGMAPLTQEQKPVAKVVNDNAPQTA",,,,,,,,,,,,,,,,binds
